Several values for one entry are separate records, joined by “and”; a condition that tells them apart may be missing. Equal values may be shown once.
target: SARS-CoV-2 Main Protease (SARS-CoV-2) (UniProt P0DTD1)

`O=C(NCCc1cccc(F)c1)C(c1cccnc1)N(C(=O)c1cocn1)C1Cc2ccccc21` (configuration not stated) and `O=C(NCCc1cccc(F)c1)C(c1cccnc1)N(C(=O)c1cocn1)C1CCc2cc(F)ccc21` (configuration not stated) cannot be ordered by IC50: over 99.5 µM for the first, over 99.5 µM for the second.

First: Cc1ccc(Nc2ccccc2C(=O)N2CCC(C3CCNC3)CC2)cc1 (configuration not stated)
Second: CN(CCO)C1CCN(C(=O)CC2(C(=O)Nc3cncc4ccccc34)CCOc3ccc(Cl)cc32)CC1 (configuration not stated)
The IC50 of the first is higher: over 99.5 µM for the first, 37.6 µM for the second.

Going from `CC1(C(=O)Nc2cncc3cccc(Cl)c23)CNS(=O)(=O)c2ccc(Cl)cc21` (configuration not stated) to `CC(=O)NCC1(C(=O)Nc2cncc3ccccc23)CCOc2ccc(Cl)cc21` (configuration not stated), the IC50 rises from 1.87 µM to 3.34 µM (1.8-fold). The first is the more potent here.

Going from `C=CC(=O)N(c1cc(C(C)(C)C)on1)C(C(=O)NC(C)(C)C)c1cccnc1` (configuration not stated) to `C=CC(=O)N(c1ccc(C(C)(C)C)cc1)C(C(=O)NCCOC)c1cccnc1` (configuration not stated), the IC50 falls from over 99 µM to 55.8 µM.

`O=C(Cc1cc(Cl)cc(Nc2cc(Cl)nc(Cl)n2)c1)Nc1cncc2ccccc12` and `COc1cc(Nc2cc(Cl)cc(CC(=O)Nc3cncc4ccccc34)c2)nc(OC)n1` are within 1.5-fold of each other in IC50: 1.83 µM for the first, 2.21 µM for the second.

Compared with `CC(C)(C)c1ccc(N(C(=O)c2cnsn2)C(C(=O)NCCc2cccc(F)c2)c2cccnc2)cc1` (configuration not stated), `CC(C)(C)c1ccc(N(C(=O)c2cnon2)C(C(=O)NCCc2cccc(F)c2)c2cccnc2)cc1` (configuration not stated) is 1.6-fold lower in IC50: 13.2 µM for the first, 8.41 µM for the second. The second is the more potent here.

`O=C(Cc1cc(Cl)cc(Nc2c(Cl)c(F)nc(F)c2Cl)c1)Nc1cncc2ccccc12` and `O=C(Cc1cc(Cl)cc(Nc2cccc(C(F)(F)F)n2)c1)Nc1cncc2ccccc12` are within 1.5-fold of each other in IC50: 2.16 µM for the first, 2.13 µM for the second.

Going from `N#Cc1cnn(-c2ccccn2)c1Nc1cc(Cl)cc(CC(=O)Nc2cncc3ccccc23)c1` to `O=C(Cc1cc(Cl)cc(Nc2cccc3ccc(O)cc23)c1)Nc1cncc2ccccc12`, the IC50 rises from 1.72 µM to 3.2 µM (1.9-fold). The first is the more potent here.

Compared with `O=c1[nH]c(Cc2cccc(S(F)(F)(F)(F)F)c2)nc2cnccc12`, `O=C1CC(C(=O)Nc2cncc3ccccc23)c2cc(Br)ccc2N1` (configuration not stated) is lower in IC50: over 99.5 µM for the first, 1.12 µM for the second. The second is the more potent here.

Going from `CCN(c1ccccc1)S(=O)(=O)c1ccc(OC)c(NC(=O)CCl)c1` to `COc1cc(Cl)c(C)cc1Nc1cc(Cl)cc(CC(=O)Nc2cncc3ccccc23)c1`, the IC50 falls from 3.23 µM to 1.58 µM (2-fold). The second is the more potent here.

Going from `O=C1N(c2cncc3ccccc23)CCC12CN(S(=O)(=O)CC1(C(F)(F)F)CC1)Cc1ccc(Cl)cc12` (configuration not stated) to `N#CCC1(CS(=O)(=O)N2Cc3ccc(Cl)cc3C3(CCN(c4cncc5ccccc45)C3=O)C2)CC1` (configuration not stated), the IC50 rises from 0.157 µM to 0.337 µM (2.1-fold).

`COc1nccnc1C(C(=O)NCCc1cccc(F)c1)N(C(=O)c1cocn1)c1ccc(C(C)(C)C)cc1` (configuration not stated) and `O=C(NCCc1cccc(F)c1)C(c1cccnc1)N(C(=O)c1cocn1)c1ccc2scnc2c1` (configuration not stated) are within 1.5-fold of each other in IC50: 94.9 µM for the first, 84 µM for the second.

First: CC1(CS(=O)(=O)N2Cc3ccc(Cl)cc3C3(CCN(c4cncc5cc(S(C)(=O)=O)ccc45)C3=O)C2)CC1 (configuration not stated)
Second: N#CC1(CS(=O)(=O)N2Cc3ccc(Cl)cc3C(C(=O)Nc3cncc4cc(NS(=O)(=O)C5CC5)ccc34)C2)CC1 (configuration not stated)
The IC50 of the first is higher: 0.155 µM for the first, under 0.05 µM for the second. The second is the more potent here.

Compared with `O=C(Nc1cncc2ccccc12)N1CCOc2ccc(Cl)cc21`, `Cc1ccc(Cl)cc1N1CCN(c2cc(Cl)cc(CC(=O)Nc3cncc4ccccc34)c2)CC1` is 3.4-fold lower in IC50: 11.4 µM for the first, 3.37 µM for the second.

`Cc1ccc(C(=O)Nc2c(-c3cnn(C)c3)nc3ccccn23)cn1` and `Cc1cc(O)ncc1NC(=O)C1CCOc2ccc(Cl)cc21` (configuration not stated) cannot be ordered by IC50: over 99.5 µM for the first, over 99.5 µM for the second.

First: COc1ccc(S(=O)(=O)N2CCN(C(=O)CCl)CC2)cc1
Second: Cc1noc(C)c1S(=O)(=O)N1CCN(C(=O)CCl)CC1
The IC50 of the first is 6.8-fold higher: 27.5 µM for the first, 4.06 µM for the second.

Going from `Cc1ccncc1NC(=O)Cc1cc(Cl)cc(NC2(C)CCC(F)(F)CC2)c1` to `C=CC(=O)N(Cc1cccc(Cl)c1)C(C(=O)NCCc1cccc(F)c1)c1cnccc1C` (configuration not stated), the IC50 rises from 14.7 µM to over 99.5 µM. The first is the more potent here.

First: O=C(NCCc1cccc(F)c1)C(c1cccnc1)N(C(=O)c1cnc[nH]1)c1ccc(OC(F)F)cc1 (configuration not stated)
Second: CC(O)Cc1c(C(=O)N(c2ccc(C(C)(C)C)cc2)C(C(=O)NCCc2cccc(F)c2)c2cccnc2)[nH][nH]c1=O (configuration not stated)
The IC50 of the first is lower: 22.1 µM for the first, over 99.5 µM for the second.

First: CNC(=O)CN1CC(C(=O)Nc2cncc3c2CCCC3)c2cc(Cl)ccc2C1=O (configuration not stated)
Second: O=C(Nc1cncc2ccccc12)C1CCOc2c(OCCC(F)(F)F)cc(Cl)cc21 (configuration not stated)
The IC50 of the first is 7-fold lower: 0.448 µM for the first, 3.14 µM for the second.

Compared with `Cc1cccc2ncnc(NC(C)c3ccc4[nH]c(=O)[nH]c4c3)c12` (configuration not stated), `C=CC(=O)N(c1ccc(I)cc1)C(C(=O)Nc1ccc(Cl)cc1)c1cncnc1` (configuration not stated) is lower in IC50: over 99.5 µM for the first, 26.3 µM for the second.

First: C=CC(=O)N(c1ccc(C(C)(C)C)cc1)C(C(=O)NCc1ccccc1)c1cccnc1 (configuration not stated)
Second: O=C(Cc1nnn2ccccc12)N(Cc1ccccc1)c1ccc(N2CCCCC2)cc1
The IC50 of the first is lower: 33.3 µM for the first, over 99.5 µM for the second.

`N#Cc1ncc(Br)cn1` and `CCCCN1C(=O)C(=O)c2cc(Br)cc(C)c21` cannot be ordered by IC50: over 99.5 µM for the first, over 99.5 µM for the second.

For `N#CC1(CS(=O)(=O)N2Cc3ccc(Cl)cc3[C@H](C(=O)Nc3cncc4ccccc34)C2)CNC1` (stereo in doubt), the IC50 was 0.0562 µM and 0.0849 µM.
With `O=C1O[C@]2(CCOc3ccc(Cl)cc32)C(=O)N1c1cncc2ccccc12` (stereo in doubt) the IC50 was 80.9 µM and > 9.95 µM.
In the case of `C#CCCCC(=O)N[C@@H](CC)C(=O)N[C@H](C(=O)N[C@@H](CC(C)C)C(=O)N[C@@H](CCC(=O)N(C)C)C(=O)COC(=O)c1c(C)cccc1C)C(C)(C)C` (stereo in doubt), the IC50 is reported as 5.77 µM and 5.83 µM.

Reference: the COVID Moonshot data (paper PMC7615835)
